Experiment [1] deals with monochoria. Nature of the experiment: Test F flood (paddy) test. In kind it is in vivo, Monochoria vaginalis. The settings on record: 21 d, scale 0-100. The text has this:
Three plastic pots (ca. 16-cm diameter) per rate were partially filled with sterilized Tama silt loam soil comprising a 35:50:15 ratio of sand, silt and clay and 2.6% organic matter. Separate plantings for each of the three pots were as follows. Seeds from the U.S. of monochoria (Monochoria vaginalis), sedge, umbrella (small-flower umbrella sedge, Cyperus difformis), bulrush, […] bulrush, Scirpus juncoides), and […] (purple […] coccinea), were planted into one 16-cm pot for each rate. Seeds from the U.S. of flatsedge, rice (rice flatsedge, Cyperus iria), sprangletop, Brdd. (bearded sprangletop, Leptochloa fascicularis), one stand of 9 or 10 water seeded rice seedlings (Rice, W.S. Jap, Oryza sativa cv. 'Japonica-[…]' or Rice, W.S. Ind, 'Indica'), and two stands of 3 or 4 seedlings of rice, transplanted (transplanted rice, Oryza sativa cv. 'Japonica-[…]') were planted into one 16-cm pot for each rate. Seeds from the U.S. of barnyardgrass (Echinochloa crus-galli), […] (common […], Alisma plantago-aquatica), and watergrass, late (late watergrass, Echinochloa oryzicola) were planted into one 16-cm pot for each rate. Plantings were sequential so that crop and weed species were at the 2.0 to 2.5-leaf stage at time of treatment. Potted plants were grown in a greenhouse with day/night temperature settings of 30/27° C., and supplemental balanced lighting was provided to maintain a 16-h photoperiod. Test pots were maintained in the greenhouse until test completion. At time of treatment, test pots were flooded to 3 cm above the soil surface, treated by application of test compounds directly to the paddy water, and then maintained at that water depth for the duration of the test. Effects of treatments on rice and weeds were visually evaluated by comparison to untreated controls after 21 d. Plant response ratings, summarized in Table F, are based on a scale of 0 to 100 where 0 is no effect and 100 is complete control. A dash (-) response means no test result.

Experiment [2] deals with arrowleaf sida. The experiment in a line: Test E preemergence herbicide test. In kind it is in vivo, Sida rhombifolia. Details: key: 0 = no effect, 100 = complete control. The source says: Seeds of plant species selected from corn (Zea mays), soybean (Glycine max), velvetleaf (Abutilon theophrasti), lambsquarters (Chenopodium album), wild poinsettia (Euphorbia heterophylla), pigweed, palmer (palmer pigweed, Amaranthus palmeri), waterhemp (common waterhemp, Amaranthus rudis), surinam grass (Brachiaria decumbens), crabgrass, large (large crabgrass, Digitaria sanguinalis), crabgrass, Brazil (Brazilian crabgrass, Digitaria horizontalis), panicum, fall (fall panicum, Panicum dichotomiflorum), foxtail, giant (giant foxtail, Setaria faberii), foxtail, green (green foxtail, Setaria viridis), goosegrass (Eleusine indica), johnsongrass (Sorghum halepense), ragweed (common ragweed, Ambrosia elatior), barnyardgrass (Echinochloa crus-galli), sandbur (southern sandbur, Cenchrus echinatus), arrowleaf […] rhombifolia), ryegrass, Italian (Italian ryegrass, Lolium multiflorum), dayflower, VA (Virginia dayflower, Commelina virginica), field bindweed (Convolvulus arvensis), morningglory (Ipomoea coccinea), nightshade (eastern black nightshade, Solanum ptycanthum), kochia (Kochia scoparia), nutsedge, yellow (yellow nutsedge, Cyperus esculentus), cocklebur (common cocklebur, Xanthium strumarium), smartweed (ladysthumb smartweed, Polygonum Persicaria) and beggarticks (hairy beggarticks, Bidens pilosa), were planted into a silt loam soil and treated preemergence with test chemicals formulated in a non-phytotoxic solvent mixture which included a surfactant. Treated plants and controls were maintained in a greenhouse for 21 days, after which time all species were compared to controls and visually evaluated. Plant response ratings, summarized in Table E, are based on a scale of 0 to 100 where 0 is no effect and 100 is complete control. A dash (-) response means no test result.

Experiment [3] concerns bluegrass. Nature of the experiment: Test D pre-/postemergence herbicide test. In kind it is in vivo, Poa annua. To be noted: Preemergence; for Plant response rating, Bluegrass: scale 0 to 100 (0 no effect, 100 complete control). An outline of the steps:
(§1)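 Plants were sown in silt loam for preemergence spraying or in a peat moss/vermiculite mix for postemergence spraying at 2 to 18 cm height. Formulations used a non-phytotoxic solvent mixture with a surfactant. After 7 to 21 days, responses were scored visually from 0 (no effect) to 100 (complete control).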

The subject of experiment [4] is speedwell. The experiment in a line: Test D pre-/postemergence herbicide test. The format is in vivo, Veronica persica. The settings on record: Preemergence, scale 0 to 100 (0 no effect, 100 complete control). Put shortly: as §1
Experiment [5] deals with oilseed rape. Nature of the experiment: Test D pre-/postemergence herbicide test. The format is in vivo, Brassica napus. To be noted: Preemergence, scale 0 to 100 (0 no effect, 100 complete control). An outline of the steps:
as §1

Experiment [6] has as its system radish, wild. The experiment in a line: Test D pre-/postemergence herbicide test. In kind it is in vivo, Raphanus raphanistrum. The settings on record: Preemergence, scale 0 to 100 (0 no effect, 100 complete control). The text has this: (§2) Seeds of plant species selected from bluegrass (annual bluegrass, Poa annua), blackgrass (Alopecurus myosuroides), canarygrass (littleseed canarygrass, Phalaris minor), chickweed (common chickweed, Stellaria media), galium (catchweed bedstraw, Galium aparine), bromegrass, downy (downy bromegrass, Bromus tectorum), field poppy (Papaver rhoeas), field violet (Viola arvensis), foxtail, green (green foxtail, Setaria viridis), deadnettle (henbit deadnettle, Lamium amplexicaule), ryegrass, Italian (Italian ryegrass, Lolium multiflorum), kochia (Kochia scoparia), lambsquarters (Chenopodium album), oilseed rape (Brassica napus), pigweed (Amaranthus retroflexus), chamomile (scentless chamomile, Matricaria inodora), Russian thistle (Salsola kali), speedwell (bird's-eye speedwell, Veronica persica), barley, spring (spring barley, Hordeum vulgare), wheat, spring (spring wheat, Triticum aestivum), buckwheat, wild (wild buckwheat, Polygonum convolvulus), mustard, wild (wild mustard, Sinapis arvensis), oat, wild (wild oat, Avena fatua), radish, wild (wild radish, Raphanus raphanistrum), […]), barley, winter (winter barley, Hordeum vulgare), and wheat, winter (winter wheat, Triticum aestivum) were planted into a silt loam soil and treated preemergence with test chemicals formulated in a non-phytotoxic solvent mixture which included a surfactant. At the same time, these species were planted in pots containing Redi-Earth® planting medium (Scotts Company, 14111 Scottslawn Road, Marysville, Ohio 43041) comprising spaghnum peat moss, vermiculite, wetting agent and starter nutrients and treated with postemergence applications of the test chemicals formulated in the same manner. Plants ranged in height from 2 to 18 cm (1- to 4-leaf stage). Treated plants and controls were maintained in a controlled growth environment for 7 to 21 days after which time all species were compared to controls and visually evaluated. Plant response ratings, summarized in Table D, are based on a scale of 0 to 100 where 0 is no effect and 100 is complete control. A dash (-) response means no test result.

Experiment [7] deals with oat, wild. The experiment in a line: Test D pre-/postemergence herbicide test. The settings on record: Preemergence, scale 0 to 100 (0 no effect, 100 complete control). In kind it is in vivo, Avena fatua.
Excerpt: as §2

Regarding `O=C1NCC(c2cccc(C(F)(F)F)c2)C1C(=O)Nc1ccccc1F` (racemic) [Compound 3], the “Plant response rating, Monochoria” value was found to be 90 in experiment [1] (250 g ai/ha) and 100 in experiment [1] (500 g ai/ha).
On to `O=C1NCC(c2ccc(F)cc2)C1C(=O)Nc1ccccc1F` (racemic) [Compound 16], for which the “Plant response rating, Arrowleaf Sida” value in experiment [2] (16 g ai/ha), in experiment [2] (31 g ai/ha), in experiment [2] (62 g ai/ha), in experiment [2] (125 g ai/ha) and in experiment [2] (250 g ai/ha) was 0 in each case.
Regarding `O=C1NCC(c2cccc(C(F)(F)F)c2)C1C(=O)Nc1ccc(F)cc1F` (racemic) [Compound 207], the “Plant response rating, Bluegrass” value in experiment [3] (31 g ai/ha) is 0; in experiment [3] (62 g ai/ha) it was 15; in experiment [3] (125 g ai/ha), 15. The compound further registered a Plant response rating in experiment [3] (250 g ai/ha, Bluegrass, scale 0 to 100) of 30. Besides, the “Plant response rating, Speedwell” value in experiment [4] (31 g ai/ha) was found to be 20; in experiment [4] (62 g ai/ha), 20; in experiment [4] (125 g ai/ha), 25; in experiment [4] (250 g ai/ha), 30. The “Plant response rating, Oilseed Rape” value in experiment [5] (31 g ai/ha), in experiment [5] (62 g ai/ha), in experiment [5] (125 g ai/ha) and in experiment [5] (250 g ai/ha) was 0 each time. For the same compound, the entries for the “Plant response rating, Monochoria” value in experiment [1] (125 g ai/ha), in experiment [1] (250 g ai/ha) and in experiment [1] (500 g ai/ha) were 65, 100 and 100, respectively. The “Plant response rating, Radish, Wild” value in experiment [6] (31 g ai/ha) was found to be 15; in experiment [6] (62 g ai/ha), 10; in experiment [6] (125 g ai/ha) it was 15; in experiment [6] (250 g ai/ha), 15. The “Plant response rating, Oat, Wild” value in experiment [7] (31 g ai/ha) is on record as 0; in experiment [7] (62 g ai/ha), 0; in experiment [7] (125 g ai/ha), 5; in experiment [7] (250 g ai/ha), 20.
In the case of `O=C1NCC(c2ccc(C(F)(F)F)c(F)c2)C1C(=O)Nc1cccc(F)c1F` (racemic) [Compound 247], the “Plant response rating, Monochoria” value came out at 70 in experiment [1] (125 g ai/ha); 70 in experiment [1] (250 g ai/ha); 75 in experiment [1] (500 g ai/ha); 75 in experiment [1] (1000 g ai/ha); 75 in experiment [1] (2000 g ai/ha).
On to `O=C1NCC(c2cccc(Br)c2)C1C(=O)Nc1ccccc1F` (stereo not drawn) [Compound 66], for which the “Plant response rating, Arrowleaf Sida” value in experiment [2] (16 g ai/ha), in experiment [2] (31 g ai/ha), in experiment [2] (62 g ai/ha), in experiment [2] (125 g ai/ha) and in experiment [2] (250 g ai/ha) was 0 in each case.
`O=C1NCC(c2ccc(C(F)(F)F)cc2)C1C(=O)Nc1ccc(F)c(F)c1F` (stereo not drawn) [Compound 232]: the “Plant response rating, Arrowleaf Sida” value in experiment [2] (31 g ai/ha) is 0; in experiment [2] (62 g ai/ha), 20; in experiment [2] (125 g ai/ha) it was 65; in experiment [2] (250 g ai/ha), 90.
As for `CN1CC(c2ccc(F)cc2)C(C(=O)Nc2cccc(F)c2F)C1=O` (stereo not drawn) [Compound 271], the “Plant response rating, Monochoria” value stood at 85 in experiment [1] (64 g ai/ha), 100 in experiment [1] (125 g ai/ha), 100 in experiment [1] (250 g ai/ha) and 100 in experiment [1] (500 g ai/ha).

For the origin of these results see patent US10294202B2, “Pyrrolidinones as herbicides” (FMC Corporation, priority 2013, dated 2019).
